The nature of series [1]: Antidepressive activity in po dosed NMRI mouse assessed as reduction in duration of immobility administered 30 mins prior to the test measured on last 4 mins of the 10 mins test by force swim test. It is filed as functional, organism-based.
The target of series [2] is Glutamate receptor ionotropic, NMDA 2B (Rattus norvegicus, UniProt Q00960). As to the kind of experiment: Antagonist activity at Wistar rat brain NR2B assessed as inhibition of glutamate/glycine-induced Ca2+ flux measured after 90 secs. In general terms: Calcium flux is commonly read through the fluorescence of an indicator in the cells.
In another series the target is hERG (KCNH2) (Homo sapiens, UniProt Q12809). As to the kind of experiment: Displacement of [3H]-dofetilide from human ERG expressed in HEK293 cell membranes after 90 mins by scintillation counting. Particulars: membranes of HEK293 cells that express human ERG, probe [3H]-dofetilide. For orientation: Loss of bound radioactivity is the signal in a displacement assay; it reports binding, not function.

The values below come from ChEMBL document CHEMBL3864170, “Pyrazole Inhibitors of GluN2B NMDA Receptor Subunit” (ACS Med Chem Lett, 2016).

In general, IC50 refers to the concentration that inhibits the measured activity by half.

Chain of hERG (KCNH2) (Q12809 whole entry): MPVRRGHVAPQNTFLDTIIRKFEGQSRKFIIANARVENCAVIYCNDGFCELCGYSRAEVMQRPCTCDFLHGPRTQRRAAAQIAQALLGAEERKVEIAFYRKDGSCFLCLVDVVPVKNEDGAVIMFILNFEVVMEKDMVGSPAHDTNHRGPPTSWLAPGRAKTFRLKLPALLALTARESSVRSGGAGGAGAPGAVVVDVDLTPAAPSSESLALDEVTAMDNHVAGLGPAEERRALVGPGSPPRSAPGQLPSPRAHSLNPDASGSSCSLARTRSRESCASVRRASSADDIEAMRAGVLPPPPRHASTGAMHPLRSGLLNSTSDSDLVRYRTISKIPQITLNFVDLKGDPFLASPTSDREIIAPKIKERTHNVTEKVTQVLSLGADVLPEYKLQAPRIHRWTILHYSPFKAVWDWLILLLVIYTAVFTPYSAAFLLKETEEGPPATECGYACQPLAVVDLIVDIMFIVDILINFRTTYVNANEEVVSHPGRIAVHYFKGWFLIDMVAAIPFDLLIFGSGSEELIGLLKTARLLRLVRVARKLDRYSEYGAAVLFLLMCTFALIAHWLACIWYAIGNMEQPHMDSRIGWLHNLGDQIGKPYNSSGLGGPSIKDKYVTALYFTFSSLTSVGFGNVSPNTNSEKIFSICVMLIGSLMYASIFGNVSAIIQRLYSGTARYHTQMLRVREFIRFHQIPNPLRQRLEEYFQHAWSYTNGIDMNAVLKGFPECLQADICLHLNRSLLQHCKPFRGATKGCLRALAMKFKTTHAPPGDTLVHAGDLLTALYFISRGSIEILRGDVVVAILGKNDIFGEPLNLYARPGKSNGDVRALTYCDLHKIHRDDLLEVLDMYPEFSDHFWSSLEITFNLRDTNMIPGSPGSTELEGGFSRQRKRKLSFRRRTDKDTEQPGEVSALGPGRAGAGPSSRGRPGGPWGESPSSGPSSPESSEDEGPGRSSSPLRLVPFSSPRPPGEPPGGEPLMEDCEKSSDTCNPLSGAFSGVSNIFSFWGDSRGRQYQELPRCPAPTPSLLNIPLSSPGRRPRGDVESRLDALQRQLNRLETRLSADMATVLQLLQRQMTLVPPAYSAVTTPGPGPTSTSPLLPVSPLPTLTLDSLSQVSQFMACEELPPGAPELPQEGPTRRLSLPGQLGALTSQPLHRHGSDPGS
Chain of Glutamate receptor ionotropic, NMDA 2B (Q00960 whole entry): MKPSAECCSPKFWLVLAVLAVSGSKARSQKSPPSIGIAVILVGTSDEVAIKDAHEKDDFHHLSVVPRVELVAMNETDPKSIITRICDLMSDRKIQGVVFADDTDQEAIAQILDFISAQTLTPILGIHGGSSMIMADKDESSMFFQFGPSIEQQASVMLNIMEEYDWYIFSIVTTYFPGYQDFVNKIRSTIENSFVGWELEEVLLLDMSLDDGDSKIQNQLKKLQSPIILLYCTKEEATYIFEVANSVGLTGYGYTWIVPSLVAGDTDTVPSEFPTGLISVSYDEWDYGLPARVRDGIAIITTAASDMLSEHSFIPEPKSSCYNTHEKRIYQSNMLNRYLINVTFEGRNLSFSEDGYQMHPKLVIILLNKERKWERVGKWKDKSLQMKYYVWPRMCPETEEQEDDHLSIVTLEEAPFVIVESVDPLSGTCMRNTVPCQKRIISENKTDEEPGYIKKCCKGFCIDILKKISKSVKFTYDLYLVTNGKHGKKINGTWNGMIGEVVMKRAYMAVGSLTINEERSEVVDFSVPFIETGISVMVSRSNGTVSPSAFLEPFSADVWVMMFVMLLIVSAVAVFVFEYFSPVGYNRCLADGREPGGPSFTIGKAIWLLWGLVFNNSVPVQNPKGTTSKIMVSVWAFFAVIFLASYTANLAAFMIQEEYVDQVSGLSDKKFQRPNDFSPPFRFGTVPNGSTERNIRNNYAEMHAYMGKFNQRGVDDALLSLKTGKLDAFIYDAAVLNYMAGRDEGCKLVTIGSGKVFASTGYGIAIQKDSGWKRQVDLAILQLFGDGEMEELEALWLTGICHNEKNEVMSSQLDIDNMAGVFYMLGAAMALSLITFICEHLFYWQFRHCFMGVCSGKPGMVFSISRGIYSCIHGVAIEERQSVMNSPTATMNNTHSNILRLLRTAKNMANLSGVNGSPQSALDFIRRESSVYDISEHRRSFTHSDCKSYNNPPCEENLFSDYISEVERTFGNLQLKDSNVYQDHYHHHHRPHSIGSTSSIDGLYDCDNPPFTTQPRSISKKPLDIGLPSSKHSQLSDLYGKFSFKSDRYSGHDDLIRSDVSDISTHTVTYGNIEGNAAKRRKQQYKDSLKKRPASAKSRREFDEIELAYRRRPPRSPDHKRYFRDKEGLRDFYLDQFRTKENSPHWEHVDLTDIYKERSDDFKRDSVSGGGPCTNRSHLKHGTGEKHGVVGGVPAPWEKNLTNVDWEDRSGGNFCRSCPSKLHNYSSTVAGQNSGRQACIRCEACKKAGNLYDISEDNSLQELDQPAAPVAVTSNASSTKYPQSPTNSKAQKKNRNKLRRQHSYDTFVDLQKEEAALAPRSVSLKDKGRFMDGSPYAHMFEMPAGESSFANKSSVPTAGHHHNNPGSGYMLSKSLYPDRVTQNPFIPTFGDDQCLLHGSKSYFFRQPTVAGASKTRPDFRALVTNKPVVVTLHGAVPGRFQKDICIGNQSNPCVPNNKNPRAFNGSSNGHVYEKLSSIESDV

As for `Fc1ccc(-c2cnn(Cc3cc[nH]n3)c2)cc1OC(F)F`, the MED in series [1] is 10 mg/kg.

On to `FC(F)Oc1cc(-c2cnn(Cc3cn[nH]c3)c2)ccc1Cl`, for which the IC50 in series [2] was determined as 8.23 nM. The compound further came in with an IC50 at 90 min on hERG (KCNH2) of 52600 nM.

Turning to `Cn1ccc(Cn2cc(-c3ccc(Cl)c(C(F)(F)F)c3)cn2)n1`, in series [2], the half-inhibitory concentration (IC50) was 1010 nM. The compound further had a 50% inhibitory concentration (IC50) at 90 min at hERG (KCNH2) of 3470 nM.

As to `Cn1ccc(Cn2cc(-c3ccc(Cl)c(OC(F)F)c3)cn2)n1`, the MED in series [1] was determined as 30 mg/kg.
